In patent publication US7972859B2, “Authentication of ingestible products using saccharides as markers” (Authentix, Inc., priority 2006, dated 2011):
Like-named read-outs stand apart in the source and are kept apart here.

What was measured:
Maltose binding protein = Maltose binding protein (Escherichia coli, UniProt P0AEX9); details: cited from earlier work
MBP [1] = target: T1, MBP (Escherichia coli, UniProt P0AEX9); assay: inhibition of amylose-MBP binding by maltose (ELISA); set-up: 6xHis (C); made in house; host or cells: E. coli BL-21 (DE3); species or system E. coli
MBP [2] = target: T1, MBP
Procedure: TMB (3,3′,5,5′ tetramethylbenzidine) is a chromogen that yields a blue color when oxidized with hydrogen peroxide (catalyzed by HRP) with major absorbances at 370 nm and 652 nm. Adding sulfuric or phosphoric acid to stop the reaction changes the product to yellow that absorbs at 450 nm and provides greater sensitivity than the blue product.
For any test samples outside of such a range, dilution with a buffered solution is carried out.

OC[C@H]1O[C@H](O[C@H]2[C@H](O)[C@@H](O)[C@H](O)O[C@@H]2CO)[C@H](O)[C@@H](O)[C@@H]1O [maltose]
saturated at (level) (Maltose binding protein; saturation of maltose binding protein, as ppb): about 400 ppb
saturated at (concentration) (Maltose binding protein; saturation of maltose binding protein): about 10 μM
interference with binding of MBP with amylose (MBP [1]; 50 μM maltose): 90%
inhibition at 5000 µM (MBP [1]; read-out: inhibition of binding of MBP to amylose): 95%

amylose
Absorbance at 450 nm (MBP [2]; Na2CO3 buffer pH 8.3, listed as level 0.0001 (unit not given)): 0.215
Absorbance at 450 nm (MBP [2]; Na2CO3 buffer pH 8.3, listed as level 0.0002 (unit not given)): 0.181
Absorbance at 450 nm (MBP [2]; Na2CO3 buffer pH 8.3, listed as level 0.0005 (unit not given)): 0.233
Absorbance at 450 nm (MBP [2]; Na2CO3 buffer pH 8.3, listed as level 0.001 (unit not given)): 0.216
Absorbance at 450 nm (MBP [2]; Na2CO3 buffer pH 8.3, listed as level 0.01 (unit not given)): 0.440
Absorbance at 450 nm (MBP [2]; Na2CO3 buffer pH 8.3, listed as level 0.1 (unit not given)): 0.870
Absorbance at 450 nm (MBP [2]; Na2CO3 buffer pH 8.3, listed as level 1 (unit not given)): 0.748
Absorbance at 450 nm (MBP [2]; Na2CO3 buffer pH 8.9, listed as level 0.0001 (unit not given)): 0.215
Absorbance at 450 nm (MBP [2]; Na2CO3 buffer pH 8.9, listed as level 0.0002 (unit not given)): 0.170
Absorbance at 450 nm (MBP [2]; Na2CO3 buffer pH 8.9, listed as level 0.0005 (unit not given)): 0.175
Absorbance at 450 nm (MBP [2]; Na2CO3 buffer pH 8.9, listed as level 0.001 (unit not given)): 0.248
Absorbance at 450 nm (MBP [2]; Na2CO3 buffer pH 8.9, listed as level 0.01 (unit not given)): 0.502
Absorbance at 450 nm (MBP [2]; Na2CO3 buffer pH 8.9, listed as level 0.1 (unit not given)): 0.847
Absorbance at 450 nm (MBP [2]; Na2CO3 buffer pH 8.9, listed as level 1 (unit not given)): 0.787
Absorbance at 450 nm (MBP [2]; Na2CO3 buffer pH 9.3, listed as level 0.0001 (unit not given)): 0.196
Absorbance at 450 nm (MBP [2]; Na2CO3 buffer pH 9.3, listed as level 0.0002 (unit not given)): 0.169
Absorbance at 450 nm (MBP [2]; Na2CO3 buffer pH 9.3, listed as level 0.0005 (unit not given)): 0.152
Absorbance at 450 nm (MBP [2]; Na2CO3 buffer pH 9.3, listed as level 0.001 (unit not given)): 0.179
Absorbance at 450 nm (MBP [2]; Na2CO3 buffer pH 9.3, listed as level 0.01 (unit not given)): 0.438
Absorbance at 450 nm (MBP [2]; Na2CO3 buffer pH 9.3, listed as level 0.1 (unit not given)): 0.828
Absorbance at 450 nm (MBP [2]; Na2CO3 buffer pH 9.3, listed as level 1 (unit not given)): 0.788
Absorbance at 450 nm (MBP [2]; Na2CO3 buffer pH 9.9, listed as level 0.0001 (unit not given)): 0.235
Absorbance at 450 nm (MBP [2]; Na2CO3 buffer pH 9.9, listed as level 0.0002 (unit not given)): 0.182
Absorbance at 450 nm (MBP [2]; Na2CO3 buffer pH 9.9, listed as level 0.0005 (unit not given)): 0.192
Absorbance at 450 nm (MBP [2]; Na2CO3 buffer pH 9.9, listed as level 0.001 (unit not given)): 0.241
Absorbance at 450 nm (MBP [2]; Na2CO3 buffer pH 9.9, listed as level 0.01 (unit not given)): 0.452
Absorbance at 450 nm (MBP [2]; Na2CO3 buffer pH 9.9, listed as level 0.1 (unit not given)): 0.849
Absorbance at 450 nm (MBP [2]; Na2CO3 buffer pH 9.9, listed as level 1 (unit not given)): 0.868
Absorbance at 450 nm (MBP [2]; Na2CO3 buffer pH 10, listed as level 0.0001 (unit not given)): 0.237
Absorbance at 450 nm (MBP [2]; Na2CO3 buffer pH 10, listed as level 0.0002 (unit not given)): 0.224
Absorbance at 450 nm (MBP [2]; Na2CO3 buffer pH 10, listed as level 0.0005 (unit not given)): 0.183
Absorbance at 450 nm (MBP [2]; Na2CO3 buffer pH 10, listed as level 0.001 (unit not given)): 0.160
Absorbance at 450 nm (MBP [2]; Na2CO3 buffer pH 10, listed as level 0.01 (unit not given)): 0.432
Absorbance at 450 nm (MBP [2]; Na2CO3 buffer pH 10, listed as level 0.1 (unit not given)): 0.793
Absorbance at 450 nm (MBP [2]; Na2CO3 buffer pH 10, listed as level 1 (unit not given)): 0.918
Absorbance at 450 nm (MBP [2]; Na2CO3 buffer pH 11, listed as level 0.0001 (unit not given)): 0.185
Absorbance at 450 nm (MBP [2]; Na2CO3 buffer pH 11, listed as level 0.0002 (unit not given)): 0.183
Absorbance at 450 nm (MBP [2]; Na2CO3 buffer pH 11, listed as level 0.0005 (unit not given)): 0.215
Absorbance at 450 nm (MBP [2]; Na2CO3 buffer pH 11, listed as level 0.001 (unit not given)): 0.193
Absorbance at 450 nm (MBP [2]; Na2CO3 buffer pH 11, listed as level 0.01 (unit not given)): 0.512
Absorbance at 450 nm (MBP [2]; Na2CO3 buffer pH 11, listed as level 0.1 (unit not given)): 0.845
Absorbance at 450 nm (MBP [2]; Na2CO3 buffer pH 11, listed as level 1 (unit not given)): 0.908
Absorbance at 450 nm (MBP [2]; NaHCO3 buffer pH 5.7, listed as level 0.0001 (unit not given)): 0.297
Absorbance at 450 nm (MBP [2]; NaHCO3 buffer pH 5.7, listed as level 0.0002 (unit not given)): 0.264
Absorbance at 450 nm (MBP [2]; NaHCO3 buffer pH 5.7, listed as level 0.0005 (unit not given)): 0.314
Absorbance at 450 nm (MBP [2]; NaHCO3 buffer pH 5.7, listed as level 0.001 (unit not given)): 0.238
Absorbance at 450 nm (MBP [2]; NaHCO3 buffer pH 5.7, listed as level 0.01 (unit not given)): 0.465
Absorbance at 450 nm (MBP [2]; NaHCO3 buffer pH 5.7, listed as level 0.1 (unit not given)): 0.861
Absorbance at 450 nm (MBP [2]; NaHCO3 buffer pH 5.7, listed as level 1 (unit not given)): 0.815
Absorbance at 450 nm (MBP [2]; NaHCO3 buffer pH 6.3, listed as level 0.0001 (unit not given)): 0.243
Absorbance at 450 nm (MBP [2]; NaHCO3 buffer pH 6.3, listed as level 0.0002 (unit not given)): 0.192
Absorbance at 450 nm (MBP [2]; NaHCO3 buffer pH 6.3, listed as level 0.0005 (unit not given)): 0.271
Absorbance at 450 nm (MBP [2]; NaHCO3 buffer pH 6.3, listed as level 0.001 (unit not given)): 0.219
Absorbance at 450 nm (MBP [2]; NaHCO3 buffer pH 6.3, listed as level 0.01 (unit not given)): 0.392
Absorbance at 450 nm (MBP [2]; NaHCO3 buffer pH 6.3, listed as level 0.1 (unit not given)): 0.879
Absorbance at 450 nm (MBP [2]; NaHCO3 buffer pH 6.3, listed as level 1 (unit not given)): 0.826
Absorbance at 450 nm (MBP [2]; NaHCO3 buffer pH 6.9, listed as level 0.0001 (unit not given)): 0.199
Absorbance at 450 nm (MBP [2]; NaHCO3 buffer pH 6.9, listed as level 0.0002 (unit not given)): 0.154
Absorbance at 450 nm (MBP [2]; NaHCO3 buffer pH 6.9, listed as level 0.0005 (unit not given)): 0.234
Absorbance at 450 nm (MBP [2]; NaHCO3 buffer pH 6.9, listed as level 0.001 (unit not given)): 0.140
Absorbance at 450 nm (MBP [2]; NaHCO3 buffer pH 6.9, listed as level 0.01 (unit not given)): 0.397
Absorbance at 450 nm (MBP [2]; NaHCO3 buffer pH 6.9, listed as level 0.1 (unit not given)): 0.896
Absorbance at 450 nm (MBP [2]; NaHCO3 buffer pH 6.9, listed as level 1 (unit not given)): 0.853
Absorbance at 450 nm (MBP [2]; NaHCO3 buffer pH 7.1, listed as level 0.0001 (unit not given)): 0.217
Absorbance at 450 nm (MBP [2]; NaHCO3 buffer pH 7.1, listed as level 0.0002 (unit not given)): 0.195
Absorbance at 450 nm (MBP [2]; NaHCO3 buffer pH 7.1, listed as level 0.0005 (unit not given)): 0.200
Absorbance at 450 nm (MBP [2]; NaHCO3 buffer pH 7.1, listed as level 0.001 (unit not given)): 0.159
Absorbance at 450 nm (MBP [2]; NaHCO3 buffer pH 7.1, listed as level 0.01 (unit not given)): 0.366
Absorbance at 450 nm (MBP [2]; NaHCO3 buffer pH 7.1, listed as level 0.1 (unit not given)): 0.855
Absorbance at 450 nm (MBP [2]; NaHCO3 buffer pH 7.1, listed as level 1 (unit not given)): 0.849
Absorbance at 450 nm (MBP [2]; NaHCO3 buffer pH 7.7, listed as level 0.0001 (unit not given)): 0.242
Absorbance at 450 nm (MBP [2]; NaHCO3 buffer pH 7.7, listed as level 0.0002 (unit not given)): 0.208
Absorbance at 450 nm (MBP [2]; NaHCO3 buffer pH 7.7, listed as level 0.0005 (unit not given)): 0.187
Absorbance at 450 nm (MBP [2]; NaHCO3 buffer pH 7.7, listed as level 0.001 (unit not given)): 0.254
Absorbance at 450 nm (MBP [2]; NaHCO3 buffer pH 7.7, listed as level 0.01 (unit not given)): 0.387
Absorbance at 450 nm (MBP [2]; NaHCO3 buffer pH 7.7, listed as level 0.1 (unit not given)): 0.817
Absorbance at 450 nm (MBP [2]; NaHCO3 buffer pH 7.7, listed as level 1 (unit not given)): 0.809

maltotriose
Kd (Maltose binding protein; Kd expressed as ppb): about 120 ppb
